Consider 3 molecules from patent publication US20120004297A1, “Agent for alleviating vascular failure” (Naoki HIGASHI, priority 2005, published 2012).

For experiment [1], the system named is Vascular endothelial cells (GM07373A). The experiment can be described thus: Fluorescent intensity of vascular endothelial cells injured by hydrogen peroxide plus glucose, 24-wells plate, graphic analysis software method. Conditions: for Fluorescent intensity compared with the hydrogen peroxide plus glucose added system: sample further added to hydrogen peroxide plus glucose. It is filed as cell-based, cattle. As for the experimental part: Vascular endothelial cells (GM07373A) subcultured with 10% FBS added EMEM were separated with a trypsin-EDTA solution. To 1.5 ml of the solution of the cells floated on 10% FBS added EMEM was added 9 ml of 10% FBS added EMEM and the resultant mixture was placed in a laboratory dish having a diameter of 9 cm and pre-cultivation was conducted at 37° C. for 3-4 days under an atmosphere of 5% carbon dioxide. Vascular endothelial cells in the culture broth were separated with a trypsin-EDTA solution and floated on 10% FBS added EMEM. 1 ml of the floated cell solution (number of cell: 0.7-0.9×10^5 cell/ml) was poured into each well of 24-wells plate and the main cultivation was conducted at 37° C. for 2 days under an atmosphere of 5% carbon dioxide. After removal of the culture medium, 0.4% FBS added EMEM was added in an amount of 500 μl per well to make the cells in starved state and cultivation was conducted at 37° C. over a night under an atmosphere of 5% carbon dioxide. A sample solution and 10 μl of an aqueous glucose solution (200 mg/ml) were added and cultivation was conducted at 37° C. for 2 hours under an atmosphere of 5% carbon dioxide. After removal of the culture medium, A Hanks' solution (a product of Nihon Pharmaceutical Co., Ltd.) was added to the wells in the amount of 1 ml per well for twice washing. After removal of the solution, a dye solution containing hydrogen peroxide (or a dye solution not containing hydrogen peroxide) was added in the amount of 300 μl per well and cultivation was conducted at 37° C. for 30 minutes under an atmosphere of 5% carbon dioxide. The dye solution was removed to measure the fluorescent intensity of the cell.
GM07373A is a cattle's aortic vascular endothelial cell strain, “Repository No. GM07373A” purchased from Coriel Human Genetic Cell Repository in U.S.A. The dye solution containing hydrogen peroxide was prepared by mixing 50 μg of the solution of fluorescent pigment (“C-6827”, a product of Molecular Probe Company) dissolved in 90 μl of DMSO with 9 ml of the Hanks' solution and adding 90 μl of 0.3% hydrogen peroxide thereto. Hydrogen peroxide was not added for the control test.
As a sample solution, there were used methanol solutions of astaxanthin (a product of Sigma Company) in 0.053 mg/ml and 0.0053 mg/ml, methanol solutions of α-tocopherol (a product of Wako Pure Chemical Industries, Ltd.) in 0.25 mg/ml and 0.025 mg/ml and methanol solutions of tocotrienol (a product of Sigma Company) in 0.25 mg/ml and 0.025 mg/ml. 10 μl of each of the sample solution was added to 500 μl of the culture medium.
The fluorescent intensity was measured at the optional three places under 100 times magnifications using a Leica stereoscopic fluorescence microscope “MZ FL III” (having a Leica macro fluorescence apparatus having a “GFP” attachment) and a filter set (name): GEP Plant fluorescence (GFP2) (excitation filter: 480/40 nm, absorption filter: 510 nm). Each of the pictures was captured by a CDD camera and converted into gray intensity % to measure the fluorescent intensity. The fluorescent intensity was measured for three places per well and the average value was calculated. Also, 3-4 wells were prepared for each kind of sample.
The system where astaxanthin has added is one where astaxanthin in addition to hydrogen peroxide plus glucose was added. The period of time for pre-cultivation was […] and the number of cells was 0.84×10^5 cell per well.
The tocotrienol or α-tocopherol added system is one where tocotrienol or α-tocopherol in addition to hydrogen peroxide plus glucose was added. The period of time for pre-cultivation was 3 days and the number of cells was 0.89×10^5 cell per well.

The conditions of experiment [2]: cited from earlier work.
The mark [3] stands for this setting: specimen 0.5 μg/ml added in addition to hydrogen peroxide plus glucose.
Where [4] appears, read: specimen 5.0 μg/ml added in addition to hydrogen peroxide plus glucose.

`Cc1c(C)c2c(c(C)c1O)CC[C@@](C)(CCC[C@H](C)CCC[C@H](C)CCCC(C)C)O2` [α-Tocopherol, α-tocopherol]: the “Fluorescent intensity compared with the hydrogen peroxide plus glucose added system” value in experiment [1] is “less fluorescent intensity than the hydrogen peroxide plus glucose added system”. Further, the entries for the “Fluorescent intensity (%)” value in experiment [1] (setting [3]) and in experiment [1] (setting [4]) were 4.74% and 4.32%, respectively.
For `CC1=C(/C=C/C(C)=C/C=C/C(C)=C/C=C/C=C(C)/C=C/C=C(C)/C=C/C2=C(C)C(=O)C(O)CC2(C)C)C(C)(C)CC(O)C1=O` (stereo not drawn) [Astaxanthin, 3,3′-dihydroxy-β,β-carotene-4,4′-dione], the “Fluorescent intensity (%)” value in experiment [1] (astaxanthin 0.104 μg/ml added in addition to hydrogen peroxide plus glucose) worked out at 2.55%; in experiment [1] (astaxanthin 1.04 μg/ml added in addition to hydrogen peroxide plus glucose), 1.93%. Further, the “Fluorescent intensity compared with the hydrogen peroxide plus glucose added system” value in experiment [1] is given as “less fluorescent intensity than the hydrogen peroxide plus glucose added system”. Also, the “Antioxidative action, times as strong as vitamin E” value in experiment [2] (relative to vitamin E) is reported as “about 1000 times”. Moreover, the “Antioxidative action, times as strong as β-carotene” value in experiment [2] (relative to β-carotene) was “about 40 times”.
As to tocotrienol [Tocotorienol], the “Fluorescent intensity compared with the hydrogen peroxide plus glucose added system” value in experiment [1] was “less fluorescent intensity than the hydrogen peroxide plus glucose added system”. Moreover, the “Fluorescent intensity (%)” value in experiment [1] (setting [3]) was 4.35%; in experiment [1] (setting [4]), 4.40%. The “Antioxidative action, times as strong as tocopherol” value in experiment [2] (relative to tocopherol) was “about 50 times”.
